# The supplement of paper PMC10307832
# What was measured:
# Assay in all cases: relative viability (nuclei count vs DMSO), 5 days (fraction); higher = more cells survive
# [1] = compound: Cc1cnc(CNC(=O)c2c(=O)c3ccc(N4CCCN(C)CC4)nc3n3c2sc2ccccc23)cn1 [CX-5461] + Cc1cc(Nc2cc(N3CCN(C)CC3)nc(Sc3ccc(NC(=O)C4CC4)cc3)n2)n[nH]1 [Tozasertib] (partner 0.1 µM)
# In short: (§1)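 Relative viability is defined as nuclei in treated wells over nuclei in vehicle wells. Duplicate plates were run and medians reported. Lung cancer cell lines in 1536-well plates were dosed by pin tool one day after seeding, with one drug or with a fixed anchor-drug dose plus five library-drug doses (not always all listed) in √10 steps, and nuclei were counted after 5 days.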
# [2] = compound: O=C(Nc1cc(C(F)(F)F)cc(C(F)(F)F)c1)c1cc(Cl)ccc1O [IMD-0354] + CC1(C)CCC(c2ccc(Cl)cc2)=C(CN2CCN(c3ccc(C(=O)NS(=O)(=O)c4ccc(N[C@H](CCN5CCOCC5)CSc5ccccc5)c(S(=O)(=O)C(F)(F)F)c4)cc3)CC2)C1 [Navitoclax] (partner 0.5 µM)
# In short: as §1
# [3] = compound: O=C(Nc1cc(C(F)(F)F)cc(C(F)(F)F)c1)c1cc(Cl)ccc1O [IMD-0354] + C[C@@H](Oc1cc(-c2cnn(C3CCNCC3)c2)cnc1N)c1c(Cl)ccc(F)c1Cl [Crizotinib] (partner 1 µM)
# In short: as §1
# [4] = compound: O=C(Nc1cc(C(F)(F)F)cc(C(F)(F)F)c1)c1cc(Cl)ccc1O [IMD-0354] + Nc1nc2[nH]cc(CCc3ccc(C(=O)N[C@@H](CCC(=O)O)C(=O)O)cc3)c2c(=O)[nH]1 [Pemetrexed] (partner 0.2 µM)
# In short: as §1
Cell Line,relative viability ([1]; first compound 0.01 µM),relative viability ([1]; first compound 0.03162 µM),relative viability ([1]; first compound 0.1 µM),relative viability ([1]; first compound 0.3162 µM),relative viability ([1]; first compound 1 µM),relative viability ([2]; first compound 0.04 µM),relative viability ([2]; first compound 0.1265 µM),relative viability ([2]; first compound 0.4 µM),relative viability ([2]; first compound 1.265 µM),relative viability ([2]; first compound 4 µM),relative viability ([3]; first compound 0.04 µM),relative viability ([3]; first compound 0.1265 µM),relative viability ([3]; first compound 0.4 µM),relative viability ([3]; first compound 1.265 µM),relative viability ([3]; first compound 4 µM),relative viability ([4]; first compound 0.04 µM),relative viability ([4]; first compound 0.1265 µM),relative viability ([4]; first compound 0.4 µM),relative viability ([4]; first compound 1.265 µM),relative viability ([4]; first compound 4 µM)
NCI-H2347,0.544,0.563,0.474,0.536,0.454,0.818,0.838,0.55,0.35,0.255,0.752,0.654,0.62,0.395,0.365,0.387,0.435,0.373,0.365,0.27
PC-14,0.71,0.642,0.618,0.293,0.492,1.04,0.937,0.425,0.192,0.103,0.988,0.92,0.357,0.387,0.179,0.128,0.116,0.105,0.14,0.0524
NCI-H1651,0.7,0.465,–,0.505,0.106,1.05,1.16,0.337,0.052,0.0654,0.765,0.87,0.575,0.609,0.128,0.653,0.647,0.38,0.14,0.116
HARA,0.137,0.115,0.138,–,0.189,0.952,1.11,0.36,0.342,0.131,1.05,0.921,0.53,0.158,0.208,0.318,0.271,0.207,0.202,0.151
NCI-H1650,0.398,0.389,0.261,0.357,0.239,1.42,1.06,0.682,0.149,0.171,0.921,0.793,0.578,0.19,0.205,0.364,0.352,0.309,0.259,0.12
SK-LU-1,0.33,0.339,0.247,–,0.189,1.26,1.17,0.223,0.386,0.126,1.19,0.682,0.501,0.28,0.312,1.11,0.777,0.44,0.225,0.249
LU99A,0.265,0.259,0.253,0.241,0.272,0.644,0.808,0.654,0.479,0.148,0.453,0.62,0.482,0.214,0.203,0.194,0.201,0.143,0.188,0.149
NCI-H1355,0.579,0.594,0.53,0.323,0.548,1.03,0.932,0.82,0.916,0.185,1.29,1.04,0.956,0.97,0.242,1.07,1.1,0.673,0.527,0.216
HCC-78,0.463,0.391,0.466,0.326,0.453,0.691,0.761,0.509,0.571,0.24,0.317,0.323,0.251,0.37,0.189,0.972,0.885,0.637,0.96,0.902
HCC-15,0.434,0.586,0.333,0.321,0.176,0.659,0.652,0.362,0.297,0.166,0.872,0.83,0.486,0.274,0.119,0.211,0.215,0.198,0.175,0.172
EKVX,0.387,0.366,0.332,0.35,0.378,0.967,1.11,–,0.573,0.206,1.01,0.993,–,1.07,0.246,0.456,0.347,–,0.234,0.201
NCI-H2087,0.208,0.276,0.243,0.265,0.159,0.918,0.815,0.363,0.111,0.158,0.822,0.827,0.265,0.156,0.152,0.721,0.688,0.345,0.0911,0.106
NCI-H1437,0.404,0.459,–,0.367,0.366,1.17,1.13,0.443,0.152,0.244,1.02,0.905,0.548,0.238,0.207,0.321,0.338,0.221,0.191,0.202
COR-L23,0.246,0.202,0.176,0.182,0.119,0.891,0.961,0.375,0.0982,0.147,0.616,0.532,0.302,0.193,0.131,0.205,0.202,0.206,0.182,0.108
NCI-H838,0.249,0.281,0.271,–,0.273,1.16,1.21,0.468,0.314,0.251,0.912,0.776,0.424,0.561,0.279,0.25,0.229,0.161,0.191,0.167
